Experimental data: patent US20190002452A1 (GUANGZHOU HENOVCOM BIOSCIENCE CO., LTD, priority 2016, published 2019)

target: T1, human farnesol receptor protein hFXR (Homo sapiens, UniProt Q96RI1); assay: AlphaScreen assay of FXR agonist activity in vitro: effect on binding between human farnesol receptor protein and its coactivator (SRC1-2); format: biochemical; conditions: hFXR 100 nM, peptide bSRC1-2 50 nM, 2 hr incubation at room temperature
T1 construct: hexahistidine (His6)
T1 sequence (Q96RI1 1-486): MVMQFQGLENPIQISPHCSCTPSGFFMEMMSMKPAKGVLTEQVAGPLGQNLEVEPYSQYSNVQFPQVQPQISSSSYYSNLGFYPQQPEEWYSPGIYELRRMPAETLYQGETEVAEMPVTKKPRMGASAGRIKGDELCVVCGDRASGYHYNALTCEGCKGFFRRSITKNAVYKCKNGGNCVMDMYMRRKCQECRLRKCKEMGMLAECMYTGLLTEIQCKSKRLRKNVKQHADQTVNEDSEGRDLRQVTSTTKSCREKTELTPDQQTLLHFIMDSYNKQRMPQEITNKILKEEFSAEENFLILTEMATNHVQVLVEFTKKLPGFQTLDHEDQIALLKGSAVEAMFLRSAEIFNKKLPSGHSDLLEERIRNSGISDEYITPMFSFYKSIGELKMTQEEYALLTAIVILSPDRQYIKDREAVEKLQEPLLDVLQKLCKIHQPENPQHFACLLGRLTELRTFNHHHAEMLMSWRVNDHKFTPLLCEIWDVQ
Description: FXR agonist activity in vitro for the chemicals prepared in the above examples is measured.
AlphaScreen-based assays are performed with a hexahistidine detection kit manufactured by Perkins-Elmer, for measuring the effect of chemical compounds on the binding between human farnesol receptor protein and its coactivator (SRC1-2), the method is shown as follows:
1) Preparing a mixture comprising human farnesol receptor protein hFXR (100 nM, 15 μL/well), peptide bSRC1-2 (50 nM, 15 μL/well), 10× AlphaScreen buffer solution (15 μL/well and DI water (60 μL/well), and then transferring 105 μL/well of the mixture to a 96-well plate; 2) Diluting the chemicals prepared in the above examples by twice gradient 12×, with 15 μL/well; 3) Adding donor beads and acceptor beads, 30 μL/well in total; (attention: the beads are light-sensitive) 4) Incubating in dark at room temperature for 2 hr; 5) Transferring 40 μL/well of the mixture to a 384-well plate with 3 replicates, and then centrifuging at 1000 rpm for 1 min, to make liquid mixed well underneath the wells. (attention: photopathic operation); 6) In a dark room, reading the plate (by Homogeneous luminescent immunoassay system) to obtain EC50 with a GraphPad Prism5 software.

| Molecule | EC50 |
| --- | --- |
| O=C(O)c1nsc2cc(N3CCC4(CC(OCc5c(-c6c(Cl)cccc6Cl)noc5C5CC5)C4)C3)ccc12 (stereo not shown) [Example 31, 6-(2-((5-cyclopropyl-3-(2,6-dichlorophenyl)isoxazol-4-yl)methoxy)-6-azaspiro[3.4]octan-6-yl) benzo[d]isothiazole-3-carboxylic Acid] | < 100 nM |
| O=C(O)c1cccc(N2CCC3(CC(OCc4c(-c5c(Cl)cccc5Cl)noc4C4CC4)C3)C2)c1 (stereo not shown) [Example 10, 3-(2-((5-cyclopropyl-3-(2,6-dichlorophenyl)isoxazol-4-yl)methoxy)-6-azaspiro[3.4]octan-6-yl)benzoic Acid] | 100 to 1000 nM |
| O=C(O)c1ccc2nc(N3CC4CCC(C3)C4OCc3c(-c4c(Cl)cccc4Cl)noc3C3CC3)sc2c1 (stereo not shown) [Example 6, 2-(8-((5-cyclopropyl-3-(2,6-dichlorophenyl)isoxazol-4-yl)methoxy)-3-azabicyclo[3.2.1]octan-3-yl)benzo[d]thiazole-6-carboxylic Acid] | 100 to 1000 nM |
| O=C(O)c1ccc2nc(N3CCc4ccc(OCc5c(-c6c(Cl)cccc6Cl)noc5C5CC5)cc4C3)sc2c1 [Example 24, 2-(7-((5-cyclopropyl-3-(2,6-dichlorophenyl)isoxazol-4-yl)methoxy)-3,4-dihydroisoquinolin-2(1H)-yl) benzo[d]thiazole-6-carboxylic Acid] | 100 to 1000 nM |
| O=C(O)c1ccc2nc(N3CC4(CC(OCc5c(-c6c(Cl)cccc6Cl)noc5C5CC5)C4)C[C@H]3CF)sc2c1 (stereo partly drawn) [Example 16, (S)-2-(2-((5-5-cyclopropyl-3-(2,6-dichlorophenyl)isoxazol-4-yl)methoxy)-7-(fluromethyl)-6-azaspiro[3.4]octan-6-yl) benzo[d]thiazole-6-carboxylic Acid] | 100 to 1000 nM |
| 2-(5-((5-cyclopropyl-3-(2,6-dichlorophenyl)isoxazol-4-yl)methoxy)hexahydrocyclopenta[c]pyrrol-2(1H)-yl) benzo[d]thiazole-6-carboxylic Acid [Example 27] | > 1000 nM |
| O=C(O)c1ccc2nc(N3CCC4(CC(OCc5c(-c6c(Cl)cccc6Cl)noc5C5CC5)C4)C3)ccc2c1 (stereo not shown) [Example 34, 2-(2-((5-cyclopropyl-3-(2,6-dichlorophenyl)isoxazol-4-yl)methoxy)-6-azaspiro[3.4]octan-6-yl)quinolin-6-carboxylic Acid] | 100 to 1000 nM |

Further lines, results first:

| EC50 | Molecule |
| --- | --- |
| < 100 nM | O=C(O)c1ccc2nc(N3CCC4(CC3)CC(OCc3c(-c5c(Cl)cccc5Cl)noc3C3CC3)C4)sc2c1 [Example 2, 2-(2((5-cyclopropyl-3-(2,6-dichlorophenyl)isoxazol-4-yl)methoxy)-7-azaspiro[3.5]nonan-7-yl)benzo[d]thiazole-6-carboxylic Acid] |
| 100 to 1000 nM | O=C(O)c1cccc(N2CCC3(CC(OCc4c(-c5c(Cl)cccc5Cl)noc4C4CC4)C3)C2)n1 (stereo not shown) [Example 36, 6-(2-((5-cyclopropyl-3-(2,6-dichlorophenyl)isoxazol-4-yl)methoxy)-6-azaspiro[3.4]octan-6-yl)pyridine-2-carboxylic Acid] |
| 100 to 1000 nM | COc1cc(C(=O)O)cc2sc(N3CC4(CC(OCc5c(-c6c(Cl)cccc6Cl)noc5C5CC5)C4)C[C@H]3C)nc12 (stereo partly shown) [Example 18] |
| < 100 nM | O=C(O)c1ccc2nc(N3CCc4cc(OCc5c(-c6c(Cl)cccc6Cl)noc5C5CC5)ccc4C3)sc2c1 [Example 23, 2-(6-((5-cyclopropyl-3-(2,6-dichlorophenyl)isoxazol-4-yl)methoxy)-3,4-dihydroisoquinolin-2 (1H)-yl) benzo[d]thiazole-6-carboxylic Acid] |
| 100 to 1000 nM | Cn1cc(C(=O)O)c2ccc(N3CCC4(CC(OCc5c(-c6c(Cl)cccc6Cl)noc5C5CC5)C4)C3)cc21 (stereo not shown) [Example 33, 6-(2-((5-cyclopropyl-3-(2,6-dichlorophenyl)isoxazol-4-yl)methoxy)-6-azaspiro[3.4]octan-6-yl)-1-methyl-1H-indole-3-carboxylic Acid] |
| 100 to 1000 nM | (S)-2-(2-((5-cyclopropyl-3-(2,6-dichlorophenyl)isoxazol-4-yl)methoxy)-7-(fluromethyl)-6-azaspiro[3.4]octan-6-yl)-4-methoxybenzo[d]thiazole-6-carboxylic Acid [Example 20] |
